Laboratory results reported in patent US8349851B2, “JAK kinase modulating compounds and methods of use thereof” (Ambit Biosciences Corp., priority 2009, dated 2013).

How the values were obtained:
[1] = system: csTF-1 cells (GM-CSFR/JAK2/STAT5 pathway); assay: csTF-1 cell-based reporter assay; design: species or system human; details: Homo sapiens; GM-CSF at 2 ng/mL, 4 hours; read-out: Cell Assay: CS0017: CS TF-1 reporter assay: IC50
Procedure: csTF-1 Cell-based Reporter Assay
csTF-1 cells are derived from the human erythroleukemia cell line that is growth dependent on GM-CSF and has an intact GM-CSFR/JAK2/STAT5 pathway. The cell line contains stably integrated beta-lactamase reporter gene under the control of the […] (irf 1) response element recognized by the activated transcription factor STATS. csTF-1 cells (Invitrogen K1219) were washed with assay media (97% OPTIMEM/0.5% dialyzed FBS/0.1 mM NEAA/1 mM Na pyr/P/S) and seeded in the same media at 5×10^5 cell/mL in T150 flask. After 16 hour incubation, cells were seeded at 2×10^5 cell/well in 50 μl volume, into Costar, clear bottom, 96-well assay plates. Serial dilutions of compounds were added to the plates with final DMSO concentration at 0.5% and GM-CSF at 2 ng/mL and the plates were then incubated at […] and 5% CO2 for 4 hours. The plates were brought to room temperature before adding Substrate Mixture according to manufacturer's protocol (Invitrogen, Catalog #K1085). The assay plates containing the substrate mixture were incubated in the dark at room temperature for 2 hours. Blue and green fluorescence was measured with excitation at 409 nm and emission at 460 nm (for blue) and excitation at 409 nm and emission at 530 nm (for green) using Spectra Max Gemini EM.

[2] = biological target: T1, JAK3 (Homo sapiens, UniProt P52333); assay: Competition binding assay, JAK3; details: read-out: Binding Assay: JAK3 (active_KD, ENZ)
T1 construct: made in house
Description: (§1) Competition Binding Assay to Determine Binding Constants (Kd) of the Compounds Against JAK Kinases
(§2) Competition binding assays used herein were developed, validated and performed as described in Fabian et al., Nature Biotechnology 2005, 23,329-336. Kinases were produced as fusions to T7 phage (See, Fabian et al. or WO04/015142) or alternatively, the kinases were expressed in HEK-293 cells and subsequently tagged with DNA for PCR detection (See, WO08/005310). For the binding assays, streptavidin-coated magnetic beads were treated with biotinylated affinity ligands for 30 min at rt to generate affinity resins. The liganded beads were blocked with excess biotin and washed with blocking buffer (SeaBlock (Pierce), 1% BSA, 0.05% Tween 20, 1 mM DTT) to remove unbound ligand and to reduce non-specific binding. […] Test compounds were prepared as 100× stocks in DMSO and rapidly diluted into the aqueous environment. DMSO was added to control assays lacking a test compound. Primary screen interactions were performed in polypropylene 384-well plates in a final volume of 34 μL, while Kd determinations were performed in polystyrene 96-well plates in a final volume of 135 μL. […] The kinase concentration in the eluates was measured by quantitative PCR. Each kinase was tested individually against each compound. Kds were determined using eleven serial threefold dilutions. A selectivity score, which is a quantitative measure of selectivity of a compound against a panel of enzymes, may be calculated for a compound by dividing the number of enzymes for which a compound meets a set criteria, (for example, a binding constant of 100 nM or less), by the total number of enzymes tested.

[3] = biological target: T2, JAK2 (Homo sapiens, UniProt O60674); assay: Competition binding assay, JAK2; details: read-out: Binding Assay: JAK2 (active_KD)
T2 construct: made in house
Description: as §1, §2

[4] = biological target: T3, AuroraB (Homo sapiens, UniProt Q96GD4); assay: Competition binding assay, Aurora B
T3 construct: made in house
Description: Methods for determining binding constant against Aurora B kinase are known to one of skill in the art. Exemplary methods are described in U.S. provisional application No. 61/294,413, and Fabian et al., Nature Biotechnology 2005, 23,329-336.
as §2

T2 sequence (O60674 849-1124 limits assumed): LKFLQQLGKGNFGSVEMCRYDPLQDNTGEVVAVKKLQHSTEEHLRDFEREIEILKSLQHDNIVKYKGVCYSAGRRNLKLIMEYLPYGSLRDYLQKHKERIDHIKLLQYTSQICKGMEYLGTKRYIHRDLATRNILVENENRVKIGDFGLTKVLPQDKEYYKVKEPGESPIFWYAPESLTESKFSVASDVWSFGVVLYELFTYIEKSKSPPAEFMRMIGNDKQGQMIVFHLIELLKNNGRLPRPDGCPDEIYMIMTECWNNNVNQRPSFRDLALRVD
T1 sequence (P52333 822-1111 limits assumed): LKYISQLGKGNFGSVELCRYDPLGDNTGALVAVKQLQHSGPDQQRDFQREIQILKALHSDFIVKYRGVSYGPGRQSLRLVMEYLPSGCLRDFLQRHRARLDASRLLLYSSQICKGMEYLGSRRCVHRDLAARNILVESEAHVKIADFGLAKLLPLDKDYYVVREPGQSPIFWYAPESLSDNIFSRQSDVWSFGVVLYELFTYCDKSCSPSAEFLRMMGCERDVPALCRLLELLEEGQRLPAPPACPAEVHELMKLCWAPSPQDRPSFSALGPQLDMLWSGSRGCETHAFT
T3 sequence (Q96GD4 whole entry): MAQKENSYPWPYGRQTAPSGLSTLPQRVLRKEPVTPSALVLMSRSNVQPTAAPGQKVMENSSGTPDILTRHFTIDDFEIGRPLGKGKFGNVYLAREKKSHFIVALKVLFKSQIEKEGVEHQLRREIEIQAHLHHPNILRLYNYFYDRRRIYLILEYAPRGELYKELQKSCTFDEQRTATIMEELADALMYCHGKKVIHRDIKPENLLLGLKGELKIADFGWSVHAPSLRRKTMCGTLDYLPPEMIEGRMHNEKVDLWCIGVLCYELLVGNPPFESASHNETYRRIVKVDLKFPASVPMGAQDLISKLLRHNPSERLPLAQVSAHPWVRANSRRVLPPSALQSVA

Row | Compound | IC50 [1] [nM] | Kd [2] [nM] | Kd [3] [nM] | Kd [4] [nM]
1 | COC(=O)NC(c1ccc(F)cc1)c1nc(Nc2cc(C)[nH]n2)c2ccccc2n1 (racemic) [Example 45, (R,S)-methyl (4-fluorophenyl)(4-(5-methyl-4H-pyrazol-3-ylamino)quinazolin-2-yl) methylcarbamate] | 100 to 500 | 10 to 100 | ≤ 1 | > 200
2 | Cc1cc(Nc2nc(C(O)c3ccc(F)cc3)nc3c(C)cccc23)n[nH]1 (racemic) [Example 46, (R,S)-(4-fluorophenyl)(8-methyl-4-(5-methyl-1H-pyrazol-3-ylamino)quinazolin-2-yl)methanol] | 100 to 500 | 10 to 100 | ≤ 1 | > 200
3 | Cc1cc(Nc2nc(C(O)c3ccc(F)cc3)nc3cc(F)ccc23)n[nH]1 (racemic) [Example 47, (R,S)-(7-fluoro-4-(5-methyl-1H-pyrazol-3-ylamino)quinazolin-2-yl)(4-fluorophenyl)methanol] | 100 to 500 | 10 to 100 | ≤ 1 | > 200
4 | Cc1cc(Nc2nc(C(=O)c3cccc(F)c3)nc3ccccc23)n[nH]1 [Example 1, (3-fluorophenyl)(4-(5-methyl-1H-pyrazol-3-ylamino)quinazolin-2-yl)methanone] | 100 to 500 | 10 to 100 | 1 to 10 | > 200
5 | O=C(c1cccc(F)c1)c1nc(Nc2cc[nH]n2)c2ccccc2n1 [Example 2, (4-(1H-pyrazol-3-ylamino)quinazolin-2-yl)(3-fluorophenyl)methanone] | > 500 | > 100 | > 10 | > 200
6 | COc1ccccc1C(=O)c1nc(Nc2cc[nH]n2)c2ccccc2n1 [Example 5, (4-(1H-pyrazol-3-ylamino)quinazolin-2-yl)(2-methoxyphenyl)methanone] | 100 to 500 | > 100 | 1 to 10 | > 200
7 | Cc1cc(Nc2nc(C(=O)c3ccc(F)cc3)nc3cc(C(F)(F)F)ccc23)n[nH]1 [Example 17, (4-fluorophenyl)(4-(5-methyl-1H-pyrazol-3-ylamino)-7-(trifluoromethyl)quinazolin-2-yl)methanone] | 100 to 500 | > 100 | > 10 | > 200
8 | COc1ccc2c(Nc3cc[nH]n3)nc(C(=O)c3ccc(F)cc3)nc2c1 [Example 28, (4-(1H-pyrazol-3-ylamino)-7-methoxyquinazolin-2-yl)(4-fluorophenyl)methanone] | 100 to 500 | > 100 | 1 to 10 | > 200
9 | COc1ccc2c(Nc3cc(C)[nH]n3)nc(C(F)(F)c3ccc(F)cc3)nc2c1 [Example 32, 2-(difluoro(4-fluorophenyl)methyl)-7-methoxy-N-(5-methyl-1H-pyrazol-3-yl)quinazolin-4-amine] | ≤ 100 | 10 to 100 | ≤ 1 | > 200
10 | COc1ccc2c(Nc3cc[nH]n3)nc(C(F)(F)c3ccc(F)cc3)nc2c1 [Example 33, 2-(difluoro(4-fluorophenyl)methyl)-7-methoxy-N-(1H-pyrazol-3-yl)quinazolin-4-amine] | 100 to 500 | > 100 | 1 to 10 | 50 to 200
11 | Cc1cc(Nc2nc(C(F)(F)c3ccc(F)cc3)nc3c(F)cccc23)n[nH]1 [Example 34, 2-(difluoro(4-fluorophenyl)methyl)-8-fluoro-N-(5-methyl-1H-pyrazol-3-yl)quinazolin-4-amine] | ≤ 100 | 10 to 100 | ≤ 1 | > 200
12 | COc1cccc2c(Nc3cc[nH]n3)nc(C(=O)c3ccc(F)cc3)nc12 [Example 35, (4-(1H-pyrazol-3-ylamino)-8-methoxyquinazolin-2-yl)(4-fluorophenyl)methanone] | > 500 | > 100 | > 10 | 50 to 200
13 | Cc1cc(Nc2nc(C(=O)c3ccc(F)cc3)nc3cc(O)ccc23)n[nH]1 [Example 37, (4-fluorophenyl)(7-hydroxy-4-(5-methyl-1H-pyrazol-3-ylamino)quinazolin-2-yl)methanone] | ≤ 100 | 10 to 100 | ≤ 1 | > 200

Results, then the molecule that gave them:

Row | IC50 [1] [nM] | Kd [2] [nM] | Kd [3] [nM] | Kd [4] [nM] | Compound
14 | ≤ 100 | 10 to 100 | 1 to 10 | > 200 | Cc1cc(Nc2nc(C(O)c3ccc(F)cc3)nc3cc(Cl)ccc23)n[nH]1 (racemic) [Example 52, (R,S) (7-chloro-4-(5-methyl-1H-pyrazol-3-ylamino)quinazolin-2-yl)(4-fluorophenyl)methanol]
15 | ≤ 100 | 10 to 100 | ≤ 1 | > 200 | Cc1cc(Nc2nc(C(=O)c3ccc(F)cc3)nc3ccccc23)n[nH]1 [Example 3, (4-fluorophenyl)(4-(5-methyl-1H-pyrazol-3-ylamino)quinazolin-2-yl)methanone]
16 | ≤ 100 | 10 to 100 | ≤ 1 | > 200 | O=C(c1ccc(F)cc1)c1nc(Nc2cc[nH]n2)c2ccccc2n1 [Example 4, (4-(1H-pyrazol-3-ylamino)quinazolin-2-yl)(4-fluorophenyl)methanone]
17 | ≤ 100 | ≤ 10 | ≤ 1 | > 200 | Cc1cc(Nc2nc(C(F)(F)c3ccc(F)cc3)nc3ccccc23)n[nH]1 [Example 8, 2-(difluoro(4-fluorophenyl)methyl)-N-(5-methyl-1H-pyrazol-3-yl)quinazolin-4-amine]
18 | ≤ 100 | 10 to 100 | ≤ 1 | > 200 | Fc1ccc(C(F)(F)c2nc(Nc3cc[nH]n3)c3ccccc3n2)cc1 [Example 9, 2-(difluoro(4-fluorophenyl)methyl)-N-(1H-pyrazol-3-yl)quinazolin-4-amine]
19 | ≤ 100 | ≤ 10 | 1 to 10 | > 200 | Fc1ccc(C(F)(F)c2nc(Nc3cc(C4CC4)[nH]n3)c3ccccc3n2)cc1 [Example 10, N-(5-cyclopropyl-1H-pyrazol-3-yl)-2-(difluoro(4-fluorophenyl)methyl)quinazolin-4-amine]
20 | ≤ 100 | 10 to 100 | 1 to 10 | > 200 | Cc1cc(Nc2nc(C(=O)c3ccc(F)cc3)nc3cc(F)ccc23)n[nH]1 [Example 19, (7-fluoro-4-(5-methyl-1H-pyrazol-3-ylamino)quinazolin-2-yl)(4-fluorophenyl)methanone]
21 | ≤ 100 | 10 to 100 | ≤ 1 | > 200 | Cc1cc(Nc2nc(C(F)(F)c3ccc(F)cc3)nc3cc(F)ccc23)n[nH]1 [Example 20, 2-(difluoro(4-fluorophenyl)methyl)-7-fluoro-N-(5-methyl-1H-pyrazol-3-yl)quinazolin-4-amine]
22 | ≤ 100 | 10 to 100 | ≤ 1 | > 200 | Cc1ccc2c(Nc3cc(C)[nH]n3)nc(C(=O)c3ccc(F)cc3)nc2c1 [Example 24, (4-fluorophenyl)(7-methyl-4-(5-methyl-1H-pyrazol-3-ylamino)quinazolin-2-yl)methanone]
23 | ≤ 100 | ≤ 10 | ≤ 1 | > 200 | Cc1ccc2c(Nc3cc(C)[nH]n3)nc(C(F)(F)c3ccc(F)cc3)nc2c1 [Example 26, 2-(difluoro(4-fluorophenyl)methyl)-7-methyl-N-(5-methyl-1H-pyrazol-3-yl)quinazolin-4-amine]
24 | ≤ 100 | 10 to 100 | 1 to 10 | > 200 | COc1ccc2c(Nc3cc(C)[nH]n3)nc(C(=O)c3ccc(F)cc3)nc2c1 [Example 30, (4-fluorophenyl)(7-methoxy-4-(5-methyl-1H-pyrazol-3-ylamino)quinazolin-2-yl)methanone]
